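Cultured in 96-well plates, cells were exposed to test compound for 48 hours across five concentrations. At the GI50, growth is halved.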 The source made the active and inactive calls. No stated cut-off is given here; in the data, active = GI50 up to about 1.1 µM and inactive = higher.
Tests used:
Assay in all cases: NCI-60 cell line screen, 48 h
[1] = system: CAKI-1
[2] = system: CCRF-CEM
[3] = system: DU-145
[4] = system: K562
[5] = system: MOLT-4
[6] = system: NCI-H460
[7] = system: NCI/ADR-RES
[8] = system: OVCAR-3
[9] = system: OVCAR-5
[10] = system: OVCAR-8
[11] = system: PC-3
[12] = system: RXF 393
[13] = system: SF-295
[14] = system: SK-MEL-28
[15] = system: SNB-19
[16] = system: SR
[17] = system: U-251
[18] = system: UO-31
[19] = system: HL-60
[20] = system: NCI-H522

SMILES	GI50 [1]	GI50 [2]	GI50 [3]	GI50 [4]	GI50 [5]	GI50 [6]	GI50 [7]	GI50 [8]	GI50 [9]	GI50 [10]	GI50 [11]	GI50 [12]	GI50 [13]	GI50 [14]	GI50 [15]	GI50 [16]	GI50 [17]	GI50 [18]	GI50 [19]	GI50 [20]
O=C(c1ccccc1)N1CCC(CC2(c3cc4ccccc4[nH]3)OCCO2)CC1	> 100 µM (inactive)	29.6 µM (inactive)	> 100 µM (inactive)	16.3 µM (inactive)	19.5 µM (inactive)	35.9 µM (inactive)	> 100 µM (inactive)	> 100 µM (inactive)	64 µM (inactive)	58.6 µM (inactive)	40.5 µM (inactive)	76 µM (inactive)	39.4 µM (inactive)	19.4 µM (inactive)	67.9 µM (inactive)	33 µM (inactive)	34.8 µM (inactive)	30.6 µM (inactive)		
[N-]=[N+]=Nc1c(C=O)c(=O)n(-c2ccccc2)c2ccccc12	14 µM (inactive)	3.09 µM (inactive)	25.5 µM (inactive)	3.89 µM (inactive)	2.63 µM (inactive)	29.6 µM (inactive)	23.7 µM (inactive)	16.1 µM (inactive)	55.8 µM (inactive)		14.4 µM (inactive)	12.1 µM (inactive)	75.5 µM (inactive)	16.9 µM (inactive)	57 µM (inactive)	6.64 µM (inactive)	28.6 µM (inactive)	16.2 µM (inactive)	52.4 µM (inactive)	
CCOC(=O)c1ccc(NCC#CCN2CCOCC2)cc1		60.1 µM (inactive)	> 100 µM (inactive)	38.6 µM (inactive)	> 100 µM (inactive)		> 100 µM (inactive)	> 100 µM (inactive)	19.9 µM (inactive)		> 100 µM (inactive)	> 100 µM (inactive)		> 100 µM (inactive)	> 100 µM (inactive)	> 100 µM (inactive)	> 100 µM (inactive)	> 100 µM (inactive)	48.1 µM (inactive)	
SCc1ccc(CS)s1		> 100 µM (inactive)	> 100 µM (inactive)	> 100 µM (inactive)	> 100 µM (inactive)	> 100 µM (inactive)	> 100 µM (inactive)	> 100 µM (inactive)	> 100 µM (inactive)	> 100 µM (inactive)	> 100 µM (inactive)		> 100 µM (inactive)	> 100 µM (inactive)	> 100 µM (inactive)	> 100 µM (inactive)	> 100 µM (inactive)	> 100 µM (inactive)	> 100 µM (inactive)	> 100 µM (inactive)
CC1(C)CC[C@]2(C(=O)O)CC[C@]3(C)C(=CC[C@@H]4[C@@]5(C)C[C@H](O)[C@H](O)[C@@](C)(CO)C5=CC[C@]43C)[C@@H]2C1	55 µM (inactive)	> 100 µM (inactive)	39.6 µM (inactive)	50 µM (inactive)	35.6 µM (inactive)	21.3 µM (inactive)	41.1 µM (inactive)	> 100 µM (inactive)	> 100 µM (inactive)	37.2 µM (inactive)	67.9 µM (inactive)		25.8 µM (inactive)	> 100 µM (inactive)	42.7 µM (inactive)	> 100 µM (inactive)	61.7 µM (inactive)	39.3 µM (inactive)	> 100 µM (inactive)	20.2 µM (inactive)
O=C1C(=Cc2ccco2)C(=O)C2CCCCC12 (stereo not drawn)	> 100 µM (inactive)	> 100 µM (inactive)	> 100 µM (inactive)	17.6 µM (inactive)	> 100 µM (inactive)	> 100 µM (inactive)	> 100 µM (inactive)	> 100 µM (inactive)	> 100 µM (inactive)	> 100 µM (inactive)	> 100 µM (inactive)	> 100 µM (inactive)	> 100 µM (inactive)	> 100 µM (inactive)	> 100 µM (inactive)	> 100 µM (inactive)	> 100 µM (inactive)			> 100 µM (inactive)
Cc1cnc2sn(-c3ccc(Br)cc3)c(=O)c2c1	16.7 µM (inactive)	24.4 µM (inactive)	50.5 µM (inactive)		30.4 µM (inactive)	32.5 µM (inactive)	70.1 µM (inactive)	22.2 µM (inactive)	44.2 µM (inactive)	62.5 µM (inactive)	36.6 µM (inactive)		26.5 µM (inactive)	27.7 µM (inactive)	40.9 µM (inactive)	40.7 µM (inactive)	27.1 µM (inactive)	43.9 µM (inactive)	18.3 µM (inactive)	2.37 µM (inactive)
CSC12c3cc(C)n(-c4ccc([N+](=O)[O-])cc4)c3CC(C)(C)CN1C(=O)C2Oc1ccccc1 (stereo not drawn)	18.5 µM (inactive)	> 100 µM (inactive)	> 100 µM (inactive)	> 100 µM (inactive)	> 100 µM (inactive)	71.9 µM (inactive)	> 100 µM (inactive)	> 100 µM (inactive)	> 100 µM (inactive)	> 100 µM (inactive)	> 100 µM (inactive)	> 100 µM (inactive)	> 100 µM (inactive)	> 100 µM (inactive)	80.9 µM (inactive)	> 100 µM (inactive)	> 100 µM (inactive)	> 100 µM (inactive)		
OC[C@@H](O)[C@H](O)[C@H](O)[C@@H](O)C1SCCCS1	> 100 µM (inactive)		> 100 µM (inactive)		> 100 µM (inactive)	> 100 µM (inactive)	> 100 µM (inactive)	> 100 µM (inactive)	> 100 µM (inactive)	> 100 µM (inactive)	> 100 µM (inactive)	> 100 µM (inactive)	> 100 µM (inactive)	> 100 µM (inactive)	> 100 µM (inactive)	63.8 µM (inactive)	> 100 µM (inactive)	> 100 µM (inactive)		
O=C1CCCC(=O)N1n1c(Cc2ccc(Cl)cc2)n[nH]c1=O	> 100 µM (inactive)	> 100 µM (inactive)	> 100 µM (inactive)	> 100 µM (inactive)	> 100 µM (inactive)	> 100 µM (inactive)	> 100 µM (inactive)	> 100 µM (inactive)	> 100 µM (inactive)	> 100 µM (inactive)	> 100 µM (inactive)	> 100 µM (inactive)	> 100 µM (inactive)	> 100 µM (inactive)	> 100 µM (inactive)		> 100 µM (inactive)	> 100 µM (inactive)	> 100 µM (inactive)	> 100 µM (inactive)
Oc1ccc(/C=C/c2ccc3cccc(O)c3n2)cc1O	4.98 µM (inactive)	0.759 µM (active)	2.79 µM (inactive)	3.69 µM (inactive)	0.973 µM (active)	3.11 µM (inactive)	0.493 µM (active)	10.9 µM (inactive)	16.1 µM (inactive)	5.86 µM (inactive)	15.6 µM (inactive)	3.24 µM (inactive)	8.17 µM (inactive)	13 µM (inactive)	5.02 µM (inactive)	3.22 µM (inactive)	4.2 µM (inactive)	2.74 µM (inactive)	1.96 µM (inactive)	
COc1ccc(-n2cnc3c(N)nc(N)nc32)cc1	76.7 µM (inactive)	25.4 µM (inactive)	> 100 µM (inactive)		34 µM (inactive)		> 100 µM (inactive)	> 100 µM (inactive)	> 100 µM (inactive)	> 100 µM (inactive)	> 100 µM (inactive)	43.2 µM (inactive)	> 100 µM (inactive)	> 100 µM (inactive)	> 100 µM (inactive)		> 100 µM (inactive)	65 µM (inactive)		> 100 µM (inactive)
COc1ccc(S(=O)(=O)NC(CCC(=O)NC(N)=O)C(=O)NC(N)=O)cc1 (stereo not drawn)	> 100 µM (inactive)	> 100 µM (inactive)	> 100 µM (inactive)	> 100 µM (inactive)	> 100 µM (inactive)	> 100 µM (inactive)	> 100 µM (inactive)	> 100 µM (inactive)	> 100 µM (inactive)	> 100 µM (inactive)	> 100 µM (inactive)		> 100 µM (inactive)	> 100 µM (inactive)	> 100 µM (inactive)	> 100 µM (inactive)	> 100 µM (inactive)	> 100 µM (inactive)	74.5 µM (inactive)	> 100 µM (inactive)
CN1CCN(c2ccc3nc(C4=C(O)C(=O)c5c(nc(CO)n5C)C4=O)[nH]c3n2)CC1	> 100 µM (inactive)	> 100 µM (inactive)	> 100 µM (inactive)	59.8 µM (inactive)	56.2 µM (inactive)	> 100 µM (inactive)	> 100 µM (inactive)	> 100 µM (inactive)	> 100 µM (inactive)	> 100 µM (inactive)	> 100 µM (inactive)	15.8 µM (inactive)	> 100 µM (inactive)	> 100 µM (inactive)	> 100 µM (inactive)		76.2 µM (inactive)	> 100 µM (inactive)	> 100 µM (inactive)	> 100 µM (inactive)
C1CC2CN(CCCN3CCOCC3)C(C1)O2 (stereo not drawn)	> 100 µM (inactive)		> 100 µM (inactive)	> 100 µM (inactive)	> 100 µM (inactive)	> 100 µM (inactive)	> 100 µM (inactive)	> 100 µM (inactive)	> 100 µM (inactive)	> 100 µM (inactive)	> 100 µM (inactive)	> 100 µM (inactive)	> 100 µM (inactive)	> 100 µM (inactive)	> 100 µM (inactive)		> 100 µM (inactive)	> 100 µM (inactive)	> 100 µM (inactive)	> 100 µM (inactive)

From ChEMBL document CHEMBL1201862, “PubChem BioAssay data set” (2004)
